Experimental findings from PMC12508156, “Non-canonical dihydrolipoyl transacetylase promotes chemotherapy resistance via mitochondrial tetrahydrofolate signaling” (Nature Communications, 2025) are described below.

SMILES strings stand for the structures. Residues, ends and D or L forms follow the SMILES beside them.

Data set [1] can be described thus: HPLC-based in vitro serum stability assay. Format: in vitro ADME. The note with it: 0.2 mg DMp39 incubated for indicated times with pre-warmed 50% serum, remaining peptide by heights of elution peaks, optimal dose of 20 μM. Here is the method: Fig. 8 Decoy peptide DMp39 targets DLAT-mediated MTHFD2 acetylation and increases tumor chemosensitivity in vitro and in vivo. a The structure of MTHFD2. K44 containing α-helix in MTHFD2, is marked in purple. The amino acid sequence of DMp39 is shown at the top. b HPLC-based in vitro serum stability assay of DMp39. DMp39 (0.2 mg) was incubated for indicated times with pre-warmed 50% serum and applied to HPLC. […] Liver, kidney, and spleen toxicity were assessed by serum alanine aminotransferase, cystatin C, and spleen index (spleen weight (mg)/body weight (g) x 10), respectively. g Efficacy test of Cy7-DMp39 in vivo. […] MTHFD2 and Ac-K44 MTHFD2 levels in tumors were assessed by co-immunoprecipitation of MTHFD2. […] Representative images of the tumors at the endpoint are presented in (h) and (k). Ac-K44 MTHFD2, MT-CO2, and DLAT levels in both xenograft mouse tumors were assessed by IHC staining (j, m). Scale bars in (h) and (k) represent 10 mm and 25 μm in (j) and (m). Results are presented as mean ± SEM for (h, k) and mean ± SD for the rest. n = 3 per group for (e, f), n = 6 for (g) left, n = 5 for (g) right, n = 6 for (h–j), and n = 5 for (k–m). P values were obtained by one-way ANOVA. Source data are provided as a Source Data file.

Data set [2] in a line: Organ toxicity in mice (serum ALT, cystatin C, spleen index). The data set is classed as in vivo. Here is the method: K44 containing α-helix in MTHFD2, is marked in purple. The amino acid sequence of DMp39 is shown at the top. b HPLC-based in vitro serum stability assay of DMp39. DMp39 (0.2 mg) was incubated for indicated times with pre-warmed 50% serum and applied to HPLC. […] Liver, kidney, and spleen toxicity were assessed by serum alanine aminotransferase, cystatin C, and spleen index (spleen weight (mg)/body weight (g) x 10), respectively. g Efficacy test of Cy7-DMp39 in vivo. […] MTHFD2 and Ac-K44 MTHFD2 levels in tumors were assessed by co-immunoprecipitation of MTHFD2. […] Representative images of the tumors at the endpoint are presented in (h) and (k). Ac-K44 MTHFD2, MT-CO2, and DLAT levels in both xenograft mouse tumors were assessed by IHC staining (j, m). […]
Mice were subcutaneously injected into the flank with 1 × 10^6 KB-3-1^cisR cells with or without DLAT knockdown. […] The tumor volume of KB-3-1^cisR or PDX tumors was monitored by blinded measurements of two perpendicular diameters and calculated using the formula 4π/3 x (width/2)^2 x (length/2). […] Tumors were collected at the experimental endpoint, and tumor proliferation was assessed using Ki-67 IHC staining. The localization, penetration, and efficacy of DMp39 were monitored by assessing the acetyl-K44 levels in tumors and fluorescence imaging analysis using an IVIS imaging system. […]

Regarding `CC[C@H](C)[C@H](NC(=O)[C@H](CCC(N)=O)NC(=O)[C@H](CCC(N)=O)NC(=O)[C@H](C)NC(=O)[C@H](CC(C)C)NC(=O)[C@H](CCCCN)NC(=O)[C@H](CCCNC(=N)N)NC(=O)CNC(=O)[C@H](CO)NC(=O)[C@@H](NC(=O)[C@@H](N)C(C)C)[C@@H](C)CC)C(=O)N[C@@H](CCCCN)C(=O)N[C@@H](CCC(N)=O)C(=O)N[C@@H](CCC(=O)O)C(=O)N[C@H](C(=O)N[C@@H](CCCNC(=N)N)C(=O)N[C@@H](CCC(N)=O)C(=O)N[C@@H](CCC(=O)O)C(=O)N[C@H](C(=O)N[C@@H](CCC(=O)O)C(=O)N[C@@H](CCC(=O)O)C(=O)N[C@@H](Cc1c[nH]c2ccccc12)C(=O)N[C@H](C(=O)N[C@@H](C)C(=O)N[C@@H](CO)C(=O)NCC(=O)N[C@@H](CC(N)=O)C(=O)N[C@@H](CCCCN)C(=O)N[C@@H](Cc1ccc(O)cc1)C(=O)NCC(=O)N[C@@H](CCCNC(=N)N)C(=O)N[C@@H](CCCCN)C(=O)N[C@@H](CCCCN)C(=O)N[C@@H](CCCNC(=N)N)C(=O)N[C@@H](CCCNC(=N)N)C(=O)N[C@@H](CCC(N)=O)C(=O)N[C@@H](CCCNC(=N)N)C(=O)N[C@@H](CCCNC(=N)N)C(=O)N[C@@H](CCCNC(=N)N)C(=O)O)C(C)C)C(C)C)C(C)C` [DMp39] (H-VISGRKLAQQIKQEVRQEVEEWVASGNKYGRKKRRQRRR-OH), the time-dependent serum stability result in data set [1] is given as “stable”. For the same molecule, in data set [2] (mice, sublethal cisplatin (5 mg/kg, twice/week for 22 days) and/or DMp39), the toxicity markers result is listed as “remained at baseline levels”. In addition, in data set [2] (short-term dosing in mice), the acute toxicity result is given as “no acute toxicity”.
